The numbers were not newly measured in article PMC6271218, “Pharmacokinetics, Tissue Distribution and Excretion of Verticinone from F. hupehensis in Rats” (Molecules, 2014), which cites them from elsewhere.

Molecules are shown by their SMILES.

On the set-up of this series: method as in PMID 20446906. To be noted: same dose administered; cited from earlier work.

`C[C@@H](Oc1cc(-c2cnn(C3CCNCC3)c2)cnc1N)c1c(Cl)ccc(F)c1Cl` [PF-02341066]: the “plasma concentrations, fold higher in male than in female rats” value is given as “at least 2 fold”.
